According to patent US20090197948A1, “Skin External Preparation” (Shiseido Co., Ltd., priority 2006, published 2009):

System: skin of the forearms of 10 panelists (stratum corneum)
Test: Testing by Conductance Measurement (rate of skin conductance change)
Format: in vivo, human
Conditions: for conductance evaluation, 30 minutes / conductance evaluation, 60 minutes / conductance evaluation, 120 minutes: Table 1, 10% aqueous solution; for conductance evaluation, 30 minutes: 30 minutes after application; for conductance evaluation, 60 minutes: 60 minutes after application; for conductance evaluation, 120 minutes: 120 minutes after application
Protocol: “Testing by Conductance Measurement” The skin conductance was measured before the application and after 30 minutes, 60 minutes, and 120 minutes of the application on the forearms of 10 panelists. From the rate of change, the moisturizing effect was evaluated. The rate of change of the skin conductance is determined by the following equation (III), and the influences on the water-absorbing property and the moisture-retention ability of the stratum corneum can be investigated. If the rate of change is small, it can be estimated that there is an increase in the water content in the stratum corneum and that the moisturizing effect is high. Rate of conductance change=(conductance before application)/(conductance after application) Equation (III) The evaluation criteria for the “Testing by Conductance Measurement” are as follows. ⊚: Average of the rate of conductance change of 10 panelists: 0 or higher and lower than 0.1 ◯: Average of the rate of conductance change of 10 panelists: 0.1 or higher and lower than 0.2 Δ: Average of the rate of conductance change of 10 panelists: 0.2 or higher and lower than 0.5 X: Average of the rate of conductance change of 10 panelists: 0.5 or higher Initially, the present inventors evaluated the conductance, based on the above-described criteria, for respective 10% aqueous solutions of various moisturizers.

SMILES: CC(O)CCO (stereo not shown) [1,3-butylene glycol]
- conductance evaluation, 30 minutes: Δ (Average of the rate of conductance change of 10 panelists: 0.2 or higher and lower than 0.5)
- conductance evaluation, 60 minutes: Δ (Average of the rate of conductance change of 10 panelists: 0.2 or higher and lower than 0.5)
- conductance evaluation, 120 minutes: Δ (Average of the rate of conductance change of 10 panelists: 0.2 or higher and lower than 0.5)

SMILES: OCC(O)CO [glycerin]
- conductance evaluation, 30 minutes: ⊚ (Average of the rate of conductance change of 10 panelists: 0 or higher and lower than 0.1)
- conductance evaluation, 60 minutes: ◯ (Average of the rate of conductance change of 10 panelists: 0.1 or higher and lower than 0.2)
- conductance evaluation, 120 minutes: ◯ (Average of the rate of conductance change of 10 panelists: 0.1 or higher and lower than 0.2)
- Conductance measurement evaluation (Table 7, 5 % alone in ion exchanged water 95 %): Δ (Average of the rate of conductance change of 10 panelists: 0.2 or higher and lower than 0.5)
